Reference: patent US9540357B1, “15-aryl prostaglandins as EP4 agonists, and methods of use thereof” (Allergan, Inc., priority 2014, dated 2017)
pEC50, pKi: −log10 of the molar value. Values joined by “and” are separate entries in the source; they are usually repeats but may differ in a detail not shown here. Equal entries are not always repeated.

Legend:
EP2 = EP2 (Homo sapiens (Human), UniProt P43116); assay: Competition binding ([3H]PGE2), EP2; settings: HEK 293 cells stably expressing human EP2 receptors, [3H]PGE2 10 nM
Protocol: Competition binding experiments were performed in a medium containing Hank's balanced salt solution, HEPES 20 mM, pH 7.3, membranes (˜60 μg protein) or 2×10^5 cells from HEK 293 cells stably expressing human EP2 receptors, [^3H]PGE2 (10 nM) and various concentrations of test compounds in a total volume of 300 μl. Reaction mixtures were incubated at 23° C. for 60 min, and were filtered over Whatman GF/B filters under vacuum. Filters were washed three times with 5 ml ice-cold buffer containing 50 mM Tris/HCl (pH 7.3). Non-specific binding was estimated in the presence of excess unlabeled PGE2 (10 μM). Binding data fitted to the binding model for a single class of binding sites, using nonlinear regression analysis. IC50 values thus obtained were converted to Ki using the equation of Ki=(IC50/(1+[L]/KD) where [L] represents PGE2 concentration (10 nM) and KD the dissociation constant for [^3H]PGE2 at human EP2 receptors (40 nM).

EP4 [1] = biological target: T1, EP4 (Homo sapiens (Human), UniProt P35408); assay: cAMP assay, EP4; type: cell-based; settings: HEK-EBNA cells expressing EP4
Protocol: A 384-well drug plate was prepared to contain 6 test compounds, PGE2 and cAMP in 16 serial dilutions in triplicate, using a Biomek station. HEK-EBNA cells expressing a target PG receptor subtype (EP2 or EP4) were suspended in a stimulation buffer (HBSS, 0.1% BSA, 0.5 mM IBMX and 5 mM HEPES, pH 7.4) in a density of 10^4 cells/5 microliters. The reaction was initiated by mixing 5 microliters drug dilutions with 5 microliters of HEK-EBNA cells in a well, carried out for 30 min at room temperature, and followed by the addition of 5 microliters anti-cAMP acceptor beads in the control buffer with Tween-20 (25 mM NaCl, 0.03% Tween-20, 5 mM HEPES, pH 7.4). After 30 min in the dark at room temperature, the mixtures were incubated with 15 microliters biotinylated-cAMP/streptavidin donor beads in Lysis/Detection buffer (0.1% BSA, 0.3% Tween-20 and 5 mM HEPES, pH 7.4) for 45 min at room temperature. Fluorescence changes were read using a Fusion-alpha microplate reader.

EP4 [2] = biological target: T1, EP4; assay: Competition binding, EP4

T1 sequence (P35408 whole entry): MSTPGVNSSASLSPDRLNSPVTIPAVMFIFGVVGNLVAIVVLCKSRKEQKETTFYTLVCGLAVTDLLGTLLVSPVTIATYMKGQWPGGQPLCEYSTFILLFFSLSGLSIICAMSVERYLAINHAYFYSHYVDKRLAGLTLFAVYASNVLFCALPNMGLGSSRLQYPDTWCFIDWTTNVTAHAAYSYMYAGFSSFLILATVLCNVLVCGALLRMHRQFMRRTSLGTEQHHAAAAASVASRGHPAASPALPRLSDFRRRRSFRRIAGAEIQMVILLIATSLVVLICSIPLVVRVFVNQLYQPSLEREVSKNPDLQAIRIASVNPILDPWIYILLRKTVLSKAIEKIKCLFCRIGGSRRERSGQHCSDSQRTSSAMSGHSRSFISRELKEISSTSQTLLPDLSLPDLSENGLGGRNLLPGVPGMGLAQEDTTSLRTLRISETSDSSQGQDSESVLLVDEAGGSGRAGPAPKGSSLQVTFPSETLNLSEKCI
Sequence of EP2 (P43116 whole entry): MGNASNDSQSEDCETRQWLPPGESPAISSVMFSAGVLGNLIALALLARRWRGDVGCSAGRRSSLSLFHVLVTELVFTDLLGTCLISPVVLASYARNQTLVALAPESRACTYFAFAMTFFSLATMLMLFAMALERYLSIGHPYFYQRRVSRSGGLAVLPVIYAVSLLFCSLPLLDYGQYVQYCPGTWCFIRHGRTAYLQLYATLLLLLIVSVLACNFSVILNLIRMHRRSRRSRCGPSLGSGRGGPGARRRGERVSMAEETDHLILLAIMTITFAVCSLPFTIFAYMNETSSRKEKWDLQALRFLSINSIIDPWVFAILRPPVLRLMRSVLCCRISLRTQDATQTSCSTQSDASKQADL

SMILES | EP2 Ki (EP2) | pEC50 (EP4 [1]) | pKi (EP4 [2]) | EP4 cAMP EC50 (EP4 [1]) | pKi (EP2) | EP4 Ki (EP4 [2])
Cc1cc(Cl)ccc1-c1cc(C(O)/C=C/[C@H]2CCC(=O)N2CCCc2ccc(C(=O)O)cc2)ccc1F (single isomer, unassigned) [Example 36] | > 10000 nM | 5.99 | 5.35 |  |  | 
O=C(O)c1ccc(CCCN2C(=O)CC[C@@H]2/C=C/C(O)c2cccc(-c3ccccc3)c2)cc1 (single isomer, unassigned) [Example 6] | > 10000 nM |  | 5.17 | > 10000 nM |  | 
Cc1c(-c2cccc(C(O)/C=C/[C@H]3CCC(=O)N3CCCc3ccc(C(=O)O)cc3)c2)ccc(Cl)c1Cl (single isomer, unassigned) [Example 22] | > 10000 nM | 7.46 | 5.63 |  |  | 
Cc1cc(Cl)ccc1-c1cc(C(O)/C=C/[C@H]2CCC(=O)N2CCCc2ccc(C(=O)O)cc2)ccc1F (single isomer, unassigned) [Example 37] |  | 6.91 and 6.68 |  |  |  | 
O=C(O)c1ccc(CCCN2C(=O)CC[C@@H]2/C=C/C(O)c2ccccc2)cc1 (single isomer, unassigned) [Example 3] | > 10000 nM | 5.04 |  |  |  | > 10000 nM
Cc1cc(Cl)ccc1-c1ccc(C(O)/C=C/[C@H]2CCC(=O)N2CCCc2ccc(C(=O)O)cc2)s1 (stereo partly drawn) [Example 32, 4-[3-(2(R)-{(1E)-3-[5-(4-chloro-2-methylphenyl)thiophen-2-yl]-3-hydroxyprop-1-en-1-yl}-5-oxopyrrolidin-1-yl)propyl]benzoic acid] | > 10000 nM |  | 5.32 |  |  | 
O=C(O)c1ccc(CCCN2C(=O)CC[C@@H]2/C=C/C(O)c2cccc(-c3ccc(Cl)cc3CO)c2)cc1 (stereo partly drawn) [Example 19, 4-[3-(2(R)-{(1E)-3-[4′-chloro-2′-(hydroxymethyl)biphenyl-3-yl]-3-hydroxyprop-1-en-1-yl}-5-oxopyrrolidin-1-yl)propyl]benzoic acid] | > 10000 nM | 7.02 and 6.78 | 6.18 |  |  | 
CCCCc1cc(Cl)ccc1-c1cccc(C(O)/C=C/[C@H]2CCC(=O)N2CCCc2ccc(C(=O)O)cc2)c1 (stereo partly drawn) [Example 28, 4-(3-{2(R)-[(1E)-3-(2′-butyl-4′-chlorobiphenyl-3-yl)-3-hydroxyprop-1-en-1-yl]-5-oxopyrrolidin-1-yl}propyl)benzoic acid] | > 10000 nM |  | 5.29 |  |  | 
O=C(O)c1ccc(CCCN2C(=O)CC[C@@H]2/C=C/C(O)c2cccc(-c3ccccc3)c2)cc1 (single isomer, unassigned) [Example 5] | > 10000 nM |  | 5.07 |  |  | 
O=C(O)c1ccc(CCCN2C(=O)CC[C@@H]2/C=C/C(O)c2cccc(Br)c2)cc1 (single isomer, unassigned) [Example 1] | > 10000 nM |  | 5.69 | > 10000 nM |  | 
Cc1cc(F)ccc1-c1cccc(C(O)/C=C/[C@H]2CCC(=O)N2CCCc2ccc(C(=O)O)cc2)c1 (stereo partly drawn) [Example 11, 4-(3-{2(R)-[(1E)-3-(4′-fluoro-2′-methylbiphenyl-3-yl)-3-hydroxyprop-1-en-1-yl]-5-oxopyrrolidin-1-yl}propyl)benzoic acid] | > 10000 nM |  | < 5.87 |  |  | 
CC(C)(C)c1cc(Cl)ccc1-c1cccc(C(O)/C=C/[C@H]2CCC(=O)N2CCCc2ccc(C(=O)O)cc2)c1 (stereo partly drawn) [Example 26, 4-(3-{2(R)-[(1E)-3-(2′-tert-butyl-4′-chlorobiphenyl-3-yl)-3-hydroxyprop-1-en-1-yl]-5-oxopyrrolidin-1-yl}propyl)benzoic acid] | > 10000 nM |  | 5.05 | > 10000 nM |  | 
O=C(O)c1ccc(CCCN2C(=O)CC[C@@H]2/C=C/C(O)c2cccc(-c3ccc(Cl)cc3CO)c2)cc1 (stereo partly drawn) [Example 18, 4-[3-(2(R)-{(1E)-3-[4′-chloro-2′-(hydroxymethyl)biphenyl-3-yl]-3-hydroxyprop-1-en-1-yl}-5-oxopyrrolidin-1-yl)propyl]benzoic acid] | > 10000 nM |  |  | > 10000 nM |  | > 10000 nM

Further molecules by rising pKi (EP4 [2]), results first:

EP2 Ki (EP2) | pEC50 (EP4 [1]) | pKi (EP4 [2]) | EP4 cAMP EC50 (EP4 [1]) | pKi (EP2) | SMILES | EP4 Ki (EP4 [2])
> 10000 nM | 5.63 | 5.88 |  |  | CCCc1cc(Cl)ccc1-c1cccc(C(O)/C=C/[C@H]2CCC(=O)N2CCCc2ccc(C(=O)O)cc2)c1 (single isomer, unassigned) [Example 24] | 
> 10000 nM | 7.85 | 5.94 |  |  | Cc1ccccc1-c1cccc(C(O)/C=C/[C@H]2CCC(=O)N2CCCc2ccc(C(=O)O)cc2)c1 (single isomer, unassigned) [Example 7] | 
> 10000 nM | 6.86 | 6.02 |  |  | Cc1cc(Cl)cc(C)c1-c1cccc(C(O)/C=C/[C@H]2CCC(=O)N2CCCc2ccc(C(=O)O)cc2)c1 (single isomer, unassigned) [Example 20] | 
> 10000 nM | 6.97 | 6.12 |  |  | CC(C)(C)c1cc(Cl)ccc1-c1cccc(C(O)/C=C/[C@H]2CCC(=O)N2CCCc2ccc(C(=O)O)cc2)c1 (stereo partly drawn) [Example 27, 4-(3-{2(R)-[(1E)-3-(2′-tert-butyl-4′-chlorobiphenyl-3-yl)-3-hydroxyprop-1-en-1-yl]-5-oxopyrrolidin-1-yl}propyl)benzoic acid] | 
> 10000 nM | 6.87 | 6.24 |  |  | CC(C)c1cc(O)ccc1-c1cccc(C(O)/C=C/[C@H]2CCC(=O)N2CCCc2ccc(C(=O)O)cc2)c1 (stereo partly drawn) [Example 30, 4-[3-(2(R)-{(1E)-3-hydroxy-3-[4′-hydroxy-2′-(propan-2-yl)biphenyl-3-yl]prop-1-en-1-yl}-5-oxopyrrolidin-1-yl)propyl]benzoic acid] | 
> 10000 nM | 7.06 | 6.48 |  |  | O=C(O)c1ccc(CCCN2C(=O)CC[C@@H]2/C=C/C(O)c2cccc(-c3ccc(Cl)cc3C(F)(F)F)c2)cc1 (single isomer, unassigned) [Example 16] | 
> 10000 nM | 6.93 | 6.50 |  |  | CCCCc1cc(Cl)ccc1-c1cccc(C(O)/C=C/[C@H]2CCC(=O)N2CCCc2ccc(C(=O)O)cc2)c1 (stereo partly drawn) [Example 29, 4-(3-{2(R)-[(1E)-3-(2′-butyl-4′-chlorobiphenyl-3-yl)-3-hydroxyprop-1-en-1-yl]-5-oxopyrrolidin-1-yl}propyl)benzoic acid] | 
> 10000 nM | 7.48 | 6.67 |  |  | CCc1cc(Cl)ccc1-c1cccc(C(O)/C=C/[C@H]2CCC(=O)N2CCCc2ccc(C(=O)O)cc2)c1 (single isomer, unassigned) [Example 14] | 
> 10000 nM | 7.22 | 6.68 |  |  | CC(C)c1cc(O)ccc1-c1cccc(C(O)/C=C/[C@H]2CCC(=O)N2CCCc2ccc(C(=O)O)cc2)c1 (stereo partly drawn) [Example 31, 4-[3-(2(R)-{(1E)-3-hydroxy-3-[4′-hydroxy-2′-(propan-2-yl)biphenyl-3-yl]prop-1-en-1-yl}-5-oxopyrrolidin-1-yl)propyl]benzoic acid] | 
> 10000 nM | 8.52 | 6.85 |  |  | Cc1c(-c2cccc(C(O)/C=C/[C@H]3CCC(=O)N3CCCc3ccc(C(=O)O)cc3)c2)ccc(Cl)c1Cl (single isomer, unassigned) [Example 23] | 
> 10000 nM | 7.20 | 6.89 |  |  | CCCc1cc(Cl)ccc1-c1cccc(C(O)/C=C/[C@H]2CCC(=O)N2CCCc2ccc(C(=O)O)cc2)c1 (single isomer, unassigned) [Example 25] | 
> 10000 nM | 8.70 | 7.22 |  |  | Cc1cc(Cl)cc(C)c1-c1cccc(C(O)/C=C/[C@H]2CCC(=O)N2CCCc2ccc(C(=O)O)cc2)c1 (single isomer, unassigned) [Example 21] | 
> 10000 nM | 8.10 | 7.28 |  |  | Cc1cc(F)ccc1-c1cccc(C(O)/C=C/[C@H]2CCC(=O)N2CCCc2ccc(C(=O)O)cc2)c1 (stereo partly drawn) [Example 12, 4-(3-{2(R)-[(1E)-3-(4′-fluoro-2′-methylbiphenyl-3-yl)-3-hydroxyprop-1-en-1-yl]-5-oxopyrrolidin-1-yl}propyl)benzoic acid] | 
 | 8.40 | 7.64 |  | 5.36 | Cc1cc(Cl)ccc1-c1cccc(C(O)/C=C/[C@H]2CCC(=O)N2CCCc2ccc(C(=O)O)cc2)c1 (stereo partly drawn) [Example 13, 4-(3-{2(R)-[(1E)-3-(4′-chloro-2′-methylbiphenyl-3-yl)-3-hydroxyprop-1-en-1-yl]-5-oxopyrrolidin-1-yl}propyl)benzoic acid] | 
> 10000 nM | 8.52 | 7.96 |  |  | O=C(O)c1ccc(CCCN2C(=O)CC[C@@H]2/C=C/C(O)c2cccc(-c3ccc(Cl)cc3C(F)(F)F)c2)cc1 (single isomer, unassigned) [Example 17] | 
> 10000 nM | 8.52 | 8.22 |  |  | CCc1cc(Cl)ccc1-c1cccc(C(O)/C=C/[C@H]2CCC(=O)N2CCCc2ccc(C(=O)O)cc2)c1 (single isomer, unassigned) [Example 15] | 
